In ChEMBL document CHEMBL1938350, “Recent progress in biological activities of synthesized phenothiazines” (Eur J Med Chem, 2011):
Converted amounts (≈) assume the structure as drawn.

How the values were obtained:
[1] = tested on: IGROV-1; experiment: Cytotoxicity against human IGROV1 cells; type: functional
[2] = Antiplatelet activity in rabbit platelets assessed as inhibition of arachidonic acid-induced platelet aggregation; type: functional, cell-based, Oryctolagus cuniculus
[3] = Antiplatelet activity in rabbit platelets assessed as inhibition of collagen-induced platelet aggregation; type: functional, cell-based, Oryctolagus cuniculus
[4] = Toxicity in rat; type: organism-based; settings: in vivo, read-out: ALD50
[5] = species: Rattus norvegicus; experiment: Anticonvulsant activity in rat assessed as inhibition of seizures; type: functional
[6] = Potentiation of doxorubicin-induced cytotoxicity against human A2780/DX3 cells after 16 hrs; type: functional
[7] = tested on: WI-38; experiment: Antimitotic activity against human non-transformed WI38 cells assessed as monoastral spindle formation at 5 uM after 1 day; type: functional
[8] = tested on: WI-38; experiment: Antimitotic activity against human non-transformed WI38 cells assessed as cell viability at 5 uM after 1 day; type: functional; settings: WI-38, 24 h, read-out: Activity
[9] = molecular target: T1, Kinesin-like protein KIF11 (Homo sapiens, UniProt P52732); experiment: Inhibition of mitotic kinesin Eg5 in human transformed WI38VA13 cells assessed as inhibition of microtubule-activated ATPase activity; type: cell-based
T1 sequence (P52732 whole entry): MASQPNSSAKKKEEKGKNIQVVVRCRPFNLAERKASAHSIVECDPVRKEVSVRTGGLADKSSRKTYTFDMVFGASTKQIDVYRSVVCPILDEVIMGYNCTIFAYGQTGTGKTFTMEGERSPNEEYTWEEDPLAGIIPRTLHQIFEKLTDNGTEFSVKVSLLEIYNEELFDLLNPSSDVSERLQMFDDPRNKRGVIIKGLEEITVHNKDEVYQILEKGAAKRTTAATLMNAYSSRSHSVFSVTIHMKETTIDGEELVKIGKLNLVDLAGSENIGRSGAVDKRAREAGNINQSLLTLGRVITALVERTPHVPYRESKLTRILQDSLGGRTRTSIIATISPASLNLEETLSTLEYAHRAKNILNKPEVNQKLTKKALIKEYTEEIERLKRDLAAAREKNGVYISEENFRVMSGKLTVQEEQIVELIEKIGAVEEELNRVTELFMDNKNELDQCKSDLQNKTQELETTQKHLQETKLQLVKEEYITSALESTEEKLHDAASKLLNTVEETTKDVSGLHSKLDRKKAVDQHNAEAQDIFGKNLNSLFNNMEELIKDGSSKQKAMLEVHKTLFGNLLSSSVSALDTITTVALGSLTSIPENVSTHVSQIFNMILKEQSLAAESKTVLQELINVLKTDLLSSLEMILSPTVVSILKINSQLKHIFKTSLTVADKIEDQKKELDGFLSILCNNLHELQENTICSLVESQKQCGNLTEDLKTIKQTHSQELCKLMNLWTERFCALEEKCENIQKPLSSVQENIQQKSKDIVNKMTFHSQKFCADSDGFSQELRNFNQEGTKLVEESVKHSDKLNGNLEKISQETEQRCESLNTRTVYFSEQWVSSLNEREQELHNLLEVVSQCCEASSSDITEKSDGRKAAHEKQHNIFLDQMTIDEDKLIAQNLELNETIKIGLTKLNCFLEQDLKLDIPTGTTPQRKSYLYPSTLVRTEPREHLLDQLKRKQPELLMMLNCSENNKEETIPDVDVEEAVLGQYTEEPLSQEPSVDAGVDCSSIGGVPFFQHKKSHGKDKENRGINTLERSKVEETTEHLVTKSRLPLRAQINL

[10] = Cytotoxicity against human colon cancer cells; type: functional; settings: Cancer cell lines, read-out: LC50 (the source's name)
[11] = Cytotoxicity against human leukemia cells; type: functional; settings: Leukemia cell
[12] = tested on: Trichophyton mentagrophytes; experiment: Antifungal activity against Trichophyton mentagrophytes; type: functional
[13] = tested on: Saccharomyces cerevisiae; experiment: Antifungal activity against Saccharomyces cerevisiae; type: functional
[14] = tested on: Mus musculus; experiment: Antiinflammatory activity in mouse assessed as inhibition of edema formation; type: functional
[15] = tested on: SK-MEL-5; experiment: Cytotoxicity against human SK-MEL-5 cells; type: functional
[16] = Oryctolagus cuniculus, Platelet

CCN(CC)CCN1c2nc3ccccc3cc2Sc2cc3ccccc3nc21
GI50 [1]: 190 nM

NNC(=O)N1c2ccccc2Sc2ccccc21
inhibition (INH) [2]: 100% | inhibition (INH) [3]: 100%

O=C1NC(=S)NC(=O)C1CNc1nnc(CN2c3ccccc3Sc3ccccc32)s1
LD50 [4]: 1000 mg/kg | inhibition (INH) [5]: 80%

COc1ccc2c(c1)N(C(=O)CCSCC1CCCN3CCCCC13)c1ccccc1S2 (stereo unspecified)
fold change (FC) [6]: 3.96

O=C(N/N=C/C1CCCS1)N1c2ccccc2Sc2ccccc21 (stereo unspecified)
inhibition (INH) [2]: 100% | inhibition (INH) [3]: 100%

OC(CNCCc1ccccc1)CN1c2ccccc2Sc2ccc(Cl)cc21 (stereo unspecified)
Activity [7]: 90% | viability at 5 µM [8]: 90% | IC50 [9]: 1520 nM

O=C(NCCCl)NCCCCN1c2ccccc2Sc2ccc(Cl)cc21
CC50 [10]: 5700 nM | GI50 [11]: 1400 nM

NCCCCN1c2ccccc2Sc2ccc(C(F)(F)F)cc21
MIC [12]: 1.5 µg/mL (≈ 4.43 µM) | MIC [13]: 0.4 µg/mL (≈ 1.18 µM)

CN(C)c1ccc(/C=N/NC(=O)N2c3ccccc3Sc3ccccc32)cc1
inhibition (INH) [14]: 20.5% | inhibition (INH) [2]: 100% | inhibition (INH) [3]: 100%

O=C(N/N=C/C1CCCO1)N1c2ccccc2Sc2ccccc21 (stereo unspecified)
inhibition (INH) [2]: 100% | inhibition (INH) [3]: 100%

O=C1N=C([O-])NC1(c1ccccc1)c1ccccc1.[Na+] [PHENYTOIN SODIUM]
LD50 [4]: 1000 mg/kg

O=C(N/N=C/c1ccccc1)N1c2ccccc2Sc2ccccc21
IC50 [2, 16]: 2300 nM | IC50 [3, 16]: 2300 nM

O=C(O)c1ccc(/C=N/NC(=O)N2c3ccccc3Sc3ccccc32)cc1
inhibition (INH) [14]: 51% | inhibition (INH) [2]: 100% | inhibition (INH) [3]: 100%

O=C(CSCC1CCCN2CCCCC12)N1c2ccccc2Sc2ccc(Cl)cc21 (stereo unspecified)
fold change (FC) [6]: 3.96

O=C(NCCCl)NCCN1c2nc3ccccc3cc2Sc2cc3ccccc3nc21
GI50 [15]: 88 nM

O=C(CSCC1CCCN2CCCCC12)N1c2ccccc2Sc2ccc(C(F)(F)F)cc21 (stereo unspecified)
fold change (FC) [6]: 3.96

O=C1NC(=O)C(CNc2nnc(CN3c4ccccc4Sc4ccccc43)o2)C(=O)N1
LD50 [4]: 1000 mg/kg | inhibition (INH) [5]: 80%
